Reference: patent US9403808B2, “Pyrazine derivatives” (Hoffmann-La Roche Inc., priority 2011, dated 2016)
pEC50: −log10 of the molar value.

What was measured:
[1] = molecular target: human CB1 receptors (Homo sapiens (Human), UniProt P21554); test: functional cAMP assay, CB1; assay type: cell-based; conditions: functional cAMP assay, CHO cells expressing human CB1; read-out: human CB1 EC50
Procedure, shortened: (§1)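 CHO cells expressing human CB1 or CB2 were preincubated 30 min at 30 °C in Krebs Ringer bicarbonate buffer with 1 mM IBMX, then exposed to compound for 30 min at 30 °C. cAMP was measured by TR-FRET (cAMP-Nano-TRF) against a 10 μM–0.13 nM cAMP standard curve, and EC50 values were derived.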

[2] = molecular target: human CB2 receptors (Homo sapiens (Human), UniProt P34972); test: functional cAMP assay, CB2; assay type: cell-based; conditions: functional cAMP assay, CHO cells expressing human CB2; read-out: human CB2 EC50
human CB2 receptors, sequence (P34972 whole entry): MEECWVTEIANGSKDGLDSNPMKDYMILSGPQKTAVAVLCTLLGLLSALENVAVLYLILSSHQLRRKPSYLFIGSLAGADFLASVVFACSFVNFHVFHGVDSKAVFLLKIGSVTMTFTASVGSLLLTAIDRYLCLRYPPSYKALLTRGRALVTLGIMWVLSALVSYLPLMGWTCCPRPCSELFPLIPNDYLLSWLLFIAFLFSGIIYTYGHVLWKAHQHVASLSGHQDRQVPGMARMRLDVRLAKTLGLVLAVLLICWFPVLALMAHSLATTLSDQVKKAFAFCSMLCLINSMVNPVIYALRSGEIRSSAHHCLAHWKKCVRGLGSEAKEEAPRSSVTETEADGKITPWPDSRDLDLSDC
Procedure, shortened: as §1

human CB1 receptors, sequence (P21554 whole entry): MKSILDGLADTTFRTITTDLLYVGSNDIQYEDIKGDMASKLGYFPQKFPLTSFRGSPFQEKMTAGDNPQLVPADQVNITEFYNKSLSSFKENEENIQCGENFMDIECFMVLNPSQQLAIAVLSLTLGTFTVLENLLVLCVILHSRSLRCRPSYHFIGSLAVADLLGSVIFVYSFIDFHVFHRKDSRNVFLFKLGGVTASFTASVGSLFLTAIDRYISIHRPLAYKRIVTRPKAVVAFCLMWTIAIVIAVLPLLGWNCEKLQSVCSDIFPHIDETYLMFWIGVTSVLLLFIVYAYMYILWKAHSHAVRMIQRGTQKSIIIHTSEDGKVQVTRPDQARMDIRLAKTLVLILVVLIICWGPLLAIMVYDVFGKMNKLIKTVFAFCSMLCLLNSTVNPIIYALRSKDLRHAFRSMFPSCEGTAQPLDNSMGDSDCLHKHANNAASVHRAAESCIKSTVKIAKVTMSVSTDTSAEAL

SMILES	pEC50 [1]	pEC50 [2]
CCC(CC)(NC(=O)c1cnc(C2CC2)c(OCC2CC2)n1)C(=O)NC [Example 53, 5-Cyclopropyl-6-cyclopropylmethoxy-pyrazine-2-carboxylic acid (1-ethyl-1-methylcarbamoyl-propyl)-amide]	< 5.00	7.82
Cc1csc(C(C)(C)NC(=O)c2cnc(C3CC3)c(OCC3CC3)n2)n1 [Example 54, 5-Cyclopropyl-6-cyclopropylmethoxy-pyrazine-2-carboxylic acid [1-methyl-1-(4-methyl-thiazol-2-yl)-ethyl]-amide]	< 5.00	6.73
Cc1csc(C(C)(C)NC(=O)c2cnc(N3CC(F)(F)C3)c(OCC3CC3)n2)n1 [Example 55, 6-Cyclopropylmethoxy-5-(3,3-difluoro-azetidin-1-yl)-pyrazine-2-carboxylic acid [1-methyl-1-(4-methyl-thiazol-2-yl)-ethyl]-amide]	< 5.00	7.66
Cc1nc([C@@H](C)NC(=O)c2cnc(N3CC(F)(F)C3)c(OCC3CC3)n2)no1 [Example 56, 6-Cyclopropylmethoxy-5-(3,3-difluoro-azetidin-1-yl)-pyrazine-2-carboxylic acid [(R)-1-(5-methyl-[1,2,4]oxadiazol-3-yl)-ethyl]amide]	< 5.00	7.14
CC(C)(NC(=O)c1cnc(C2CC2)c(OCC2CC2)n1)c1noc(N)n1 [Example 57, 5-Cyclopropyl-6-cyclopropylmethoxy-pyrazine-2-carboxylic acid [1-(5-amino-[1,2,4]oxadiazol-3-yl)-1-methyl-ethyl]-amide]	< 5.00	6.65
CC(C)(NC(=O)c1cnc(N2CC(F)(F)C2)c(OCC2CC2)n1)c1noc(N)n1 [Example 58, 6-Cyclopropylmethoxy-5-(3,3-difluoro-azetidin-1-yl)-pyrazine-2-carboxylic acid [1-(5-amino-[1,2,4]oxadiazol-3-yl)-1-methyl-ethyl]-amide]	< 5.00	6.75
C[C@@](NC(=O)c1cnc(N2CC(F)(F)C2)c(OCC2CC2)n1)(C(N)=O)c1ccccc1 [Example 59, 6-Cyclopropylmethoxy-5-(3,3-difluoro-azetidin-1-yl)-pyrazine-2-carboxylic acid ((S)-1-carbamoyl-1-phenyl-ethyl)-amide]	< 5.00	7.31
Cc1nc(C(C)(CC2CC2)NC(=O)c2cnc(N3CC(F)(F)C3)c(OCC3CC3)n2)no1 (stereo not drawn) [Example 60, 6-Cyclopropylmethoxy-5-(3,3-difluoro-azetidin-1-yl)-pyrazine-2-carboxylic acid [2-cyclopropyl-1-methyl-1-(5-methyl-[1,2,4]oxadiazol-3-yl)-ethyl]-amide]	< 5.00	7.84
Cc1nc(C(C)(NC(=O)c2cnc(N3CC(F)(F)C3)c(OCC3CC3)n2)C2CC2)no1 (stereo not drawn) [Example 61, 6-Cyclopropylmethoxy-5-(3,3-difluoro-azetidin-1-yl)-pyrazine-2-carboxylic acid [1-cyclopropyl-1-(5-methyl-[1,2,4]oxadiazol-3-yl)-ethyl]-amide]	< 5.00	7.75
Cc1nc(C(C)(NC(=O)c2cnc(C3CC3)c(OCC3CC3)n2)C2CC2)no1 (stereo not drawn) [Example 62, 5-Cyclopropyl-6-cyclopropylmethoxy-pyrazine-2-carboxylic acid [1-cyclopropyl-1-(5-methyl-[1,2,4]oxadiazol-3-yl)-ethyl]-amide]	5.78	7.64
COC(=O)C(C)(NC(=O)c1cnc(N2CC(F)(F)C2)c(OCC2CC2)n1)C1CC1 (stereo not drawn) [Example 80, 2-Cyclopropyl-2-{[6-cyclopropylmethoxy-5-(3,3-difluoro-azetidin-1-yl)-pyrazine-2-carbonyl]-amino}-propionic acid methyl ester]	< 5.00	9.15
NC(=O)CC1(NC(=O)c2cnc(C3CC3)c(OCC3CC3)n2)COC1 [Example 84, 5-Cyclopropyl-6-cyclopropylmethoxy-pyrazine-2-carboxylic acid (3-carbamoylmethyl-oxetan-3-yl)-amide]	< 5.00	7.84
NC(=O)CC1(NC(=O)c2cnc(N3CC(F)(F)C3)c(OCC3CC3)n2)COC1 [Example 85, 6-Cyclopropylmethoxy-5-(3,3-difluoro-azetidin-1-yl)-pyrazine-2-carboxylic acid (3-carbamoylmethyl-oxetan-3-yl)-amide]	< 5.00	8.24
Cc1nc([C@@](C)(NC(=O)c2cnc(N3CC(F)(F)C3)c(OCC3CC3)n2)C2CC2)no1 [Example 86, (+)-6-Cyclopropylmethoxy-5-(3,3-difluoro-azetidin-1-yl)-pyrazine-2-carboxylic acid [1-cyclopropyl-1-(5-methyl-[1,2,4]oxadiazol-3-yl)-ethyl]-amide]	< 5.00	7.63
Cc1nc([C@](C)(NC(=O)c2cnc(N3CC(F)(F)C3)c(OCC3CC3)n2)C2CC2)no1 [Example 87, (−)-6-Cyclopropylmethoxy-5-(3,3-difluoro-azetidin-1-yl)-pyrazine-2-carboxylic acid [1-cyclopropyl-1-(5-methyl-[1,2,4]oxadiazol-3-yl)-ethyl]-amide]	< 5.00	7.88
CC(C)C(NC(=O)c1cnc(N2CC(F)(F)C2)c(OCC2CC2)n1)C(N)=O (stereo not drawn) [Example 88, 6-Cyclopropylmethoxy-5-(3,3-difluoro-azetidin-1-yl)-pyrazine-2-carboxylic acid (1-carbamoyl-2-methyl-propyl)-amide]	< 5.00	7.10
NC(=O)C1(NC(=O)c2cnc(N3CC(F)(F)C3)c(OCC3CC3)n2)CCCCC1 [Example 89, 6-Cyclopropylmethoxy-5-(3,3-difluoro-azetidin-1-yl)-pyrazine-2-carboxylic acid (1-carbamoyl-cyclohexyl)-amide]	< 5.00	7.15
CC(C)C(NC(=O)c1cnc(N2CC(F)(F)C2)c(OCC2CC2)n1)C(=O)N(C)C (stereo not drawn) [Example 91, 6-Cyclopropylmethoxy-5-(3,3-difluoro-azetidin-1-yl)-pyrazine-2-carboxylic acid (1-dimethylcarbamoyl-2-methyl-propyl)-amide]	< 5.00	7.69
CC(C)C(NC(=O)c1cnc(C2CC2)c(OCC2CC2)n1)C(=O)N(C)C (stereo not drawn) [Example 92, 5-Cyclopropyl-6-cyclopropylmethoxy-pyrazine-2-carboxylic acid (1-dimethylcarbamoyl-2-methyl-propyl)-amide]	< 5.00	8.07
O=C(Nc1ccc(Cl)s1)c1cnc(N2CC(F)(F)C2)c(OCC2CC2)n1 [Example 93, 6-Cyclopropylmethoxy-5-(3,3-difluoro-azetidin-1-yl)-pyrazine-2-carboxylic acid (5-chloro-thiophen-2-yl)-amide]	< 5.00	7.13
O=C(NC1(CO)CCCCC1)c1cnc(C2CC2)c(OCC2CC2)n1 [Example 94, 5-Cyclopropyl-6-cyclopropylmethoxy-pyrazine-2-carboxylic acid (1-hydroxymethyl-cyclohexyl)-amide]	< 5.00	7.92
COCCC(C)(C)NC(=O)c1cnc(C2CC2)c(OCC2CC2)n1 [Example 95, 5-Cyclopropyl-6-cyclopropylmethoxy-pyrazine-2-carboxylic acid (3-methoxy-1,1-dimethyl-propyl)-amide]	< 5.00	7.65
CN(C)C(=O)C(CC1CCC1)NC(=O)c1cnc(N2CC(F)(F)C2)c(OCC2CC2)n1 (stereo not drawn) [Example 97, 6-Cyclopropylmethoxy-5-(3,3-difluoro-azetidin-1-yl)-pyrazine-2-carboxylic acid (2-cyclobutyl-1-dimethylcarbamoyl-ethyl)-amide]	< 5.00	7.69
CNC(=O)C(CC1CCC1)NC(=O)c1cnc(C2CC2)c(OCC2CC2)n1 (stereo not drawn) [Example 98, 5-Cyclopropyl-6-cyclopropylmethoxy-pyrazine-2-carboxylic acid (2-cyclobutyl-1-methylcarbamoyl-ethyl)-amide]	< 5.00	7.23
COCCC(C)(C)NC(=O)c1cnc(N2CC(F)(F)C2)c(OCC2CC2)n1 [Example 99, 6-Cyclopropylmethoxy-5-(3,3-difluoro-azetidin-1-yl)-pyrazine-2-carboxylic acid (3-methoxy-1,1-dimethyl-propyl)-amide]	< 5.00	7.99
O=C(NC(CO)CC1CCC1)c1cnc(N2CC(F)(F)C2)c(OCC2CC2)n1 (stereo not drawn) [Example 100, 6-Cyclopropylmethoxy-5-(3,3-difluoro-azetidin-1-yl)-pyrazine-2-carboxylic acid (1-cyclobutylmethyl-2-hydroxy-ethyl)-amide]	< 5.00	8.14
NC(=O)C(CC1CCC1)NC(=O)c1cnc(N2CC(F)(F)C2)c(OCC2CC2)n1 (stereo not drawn) [Example 101, 6-Cyclopropylmethoxy-5-(3,3-difluoro-azetidin-1-yl)-pyrazine-2-carboxylic acid (1-carbamoyl-2-cyclobutyl-ethyl)-amide]	< 5.00	8.25
CC(C)(CCc1ccccc1)NC(=O)c1cnc(N2CC(F)(F)C2)c(OCC2CC2)n1 [Example 102, 6-Cyclopropylmethoxy-5-(3,3-difluoro-azetidin-1-yl)-pyrazine-2-carboxylic acid (1,1-dimethyl-3-phenyl-propyl)-amide]	< 5.00	8.60
CN(C)C(=O)C(CC1CCC1)NC(=O)c1cnc(C2CC2)c(OCC2CC2)n1 (stereo not drawn) [Example 103, 5-Cyclopropyl-6-cyclopropylmethoxy-pyrazine-2-carboxylic acid (2-cyclobutyl-1-dimethylcarbamoyl-ethyl)-amide]	< 5.00	7.72
NC(=O)C(CC1CCC1)NC(=O)c1cnc(C2CC2)c(OCC2CC2)n1 (stereo not drawn) [Example 104, 5-Cyclopropyl-6-cyclopropylmethoxy-pyrazine-2-carboxylic acid (1-carbamoyl-2-cyclobutyl-ethyl)-amide]	< 5.00	7.37
